Data taken from patent US20120238532A1, “TREATMENT OF HUMAN OSTEOSARCOMA” (CEDARS-SINAI MEDICAL CENTER, priority 2009, published 2012).

What was measured:
[1] = system: clonogenic hematopoietic cells; test: Colony-forming cell (CFC) assays of bone marrow; details: LD-MTX 150 mg/kg; day 35; 2 × 10^4 cells/well
Procedure: (§4) Whole blood samples were obtained by submandibular bleeding and serum samples were harvested with serum separator tubes (BD Biosciences). Blood count and serum chemistry results were obtained by the Hemagen Analyst Benchtop Chemistry System (Hemagen Diagnostics, Inc. Columbia, Md.). Colony-forming cell (CFC) assays were performed as previously described (18).

MG-63 cells [2] = test: MTT assay, MG-63 (dose-response, pulse-exposure, combination); assay type: cell-based, human; details: Homo sapiens, MTT, 48 hours of exposure, read-out: ED50 (the source's name)
Procedure: 7 human OS cell lines (U2OS, G292, MG-63, HT-161, HOS, SAOS-2, and SJSA) were used in the study. Each cell line except HT-161 was obtained from the American Type Culture Collection (ATCC, Rockville, Md.). HT-161 was obtained from Dr. Emil Bogenmann (13). All cell lines were tested and authenticated prior to use according to cell line verification test recommendations by ATCC. OS cell lines were maintained in DMEM medium (Mediatech Inc., Herndon, Va.) supplemented with 10% fetal bovine serum (FBS; Atlanta Biological, Lawrenceville, Ga.) in a humidified incubator at 37° C. supplied with 5% CO2. Only the cells in exponential growth phase were used in the study.
Cell growth and survival were measured by 3-(4,5-dimethylthiazol-2-yl)-2,5-diphenyltetrazolium bromide (MTT) assay. […] After 48 hours of incubation, 10 μl of 5 mg/ml MTT solution (Sigma-Aldrich, St. Louis, Mo.) was added to each well and incubated further for 2 hours. […] For pulse-exposure experiments, MG-63 and SAOS-2 cells were seeded in 96-well plates and exposed to CuB at their ED50. After 2, 9, and 20 hours of exposure, cells were washed twice with PBS and incubated further in CuB-free media. Cell growth was checked by MTT assay at 24, 48, and 72 hours.
Calcusyn 2.0 (Biosoft, Ferguson, Mo.) was used for CI analysis.

[3] = Body weight and side-effects during xenograft treatment; assay type: in vivo, mice; details: LD-MTX 150 mg/kg
Procedure: (§1) All animal experiments strictly followed the guidelines of Cedars-Sinai Medical Center and the National Institute of Health (NIH). Female nu/nu athymic nude mice (5-6 weeks old; average weight 21 g; specific pathogen-free) from Harlan Laboratories (Indianapolis, Ind.) were maintained in pathogen-free condition with sterilized chow and water. 5×10^6 cells of MG-63 cells were mixed with 200 μl of Matrigel solution (BD Biosciences) per injection, and the mixture was injected subcutaneously on the upper flanks of nude mice. After 24 hours, tumor size was measured, and any outliers were ruled out by one-way analysis of variance (ANOVA) test. […] The dose of LD-MTX was the murine equivalent of the human dose of LD-MTX. The conversion was made using dose translation formula by Reagan-Shaw et al., (15). […] Body weights were monitored every 2 days. Tumor size was measured every 2 days, and the tumor volume was calculated using the following formula: A (length)×B (width)×C (height)×0.5236 (16). The experiment was stopped at day 35, and all mice were sacrificed. The presence of metastatic spread was examined macroscopically at the time of autopsy followed by histological examination. At least two tumors from each group were snap-frozen in liquid nitrogen for Western blotting.

MG-63 xenografts [4] = test: Immunohistochemistry of xenografts (HE, Ki-67, TUNEL); assay type: in vivo, mice; details: LD-MTX 150 mg/kg; day 35
From the text: (§2) At autopsy, tumors and internal organs including liver, spleen, kidneys were excised, weighed, and then fixed in 10% PBS-buffered formalin and maintained in 70% ethanol. For IHC, fixed tumors and organs were embedded in paraplast (Oxford Labware, St. Louis, Mo.), cut in 6 μm thick sections, and stained with hematoxylin and eosin (HE) for histopathological examination.
For Ki-67 proliferation assay, tumor sections were deparaffinized with xylene and rehydrated through graded ethanol. Endogenous peroxidase activity was blocked with 3% hydrogen peroxide in methanol. […] After incubation, tumor sections were stained with diaminobenzidine (DAB) and counterstained with hematoxylin. Terminal deoxynucleotidyl transferase dUTP nick end labeling (TUNEL) apoptosis assay was performed using ApopTaq Plus Peroxidase In Situ Apoptosis Kit (Millipore) according to the manufacturer's protocol. Percent positive cells in representative microscopic fields were counted using ImageJ (17).

Organ weight in mice = assay type: in vivo; details: LD-MTX 150 mg/kg; day 35
From the text: as §2

MG-63 xenografts [5] = test: Growth of MG-63 xenografts in athymic nude mice; assay type: in vivo; details: LD-MTX 150 mg/kg, single agent
Procedure: as §1, with “The” for “The dose of LD-MTX was the murine equivalent of the human dose of LD-MTX. The”

Blood counts in mice = assay type: in vivo; details: LD-MTX 150 mg/kg; day 35
Procedure: as §4

MG-63 cells [6] = test: Annexin V-FITC apoptosis assay, MG-63; assay type: cell-based, human; details: at ED50, 72 hours of exposure
Procedure: (§3) Cells were harvested and fixed with 70% ethanol at regular time intervals. Fixed cells were stained with propidium iodide (PI) for flow cytometry analysis using BD FACScan (BD Biosciences, San Jose, Calif.). Distribution of cell cycle was analyzed by ModFit LT V2.0 software (Verity Software House, Topsham, Me.). […] After 24, 48, and 72 hours of exposure, cells were harvested and stained with PI and fluorescein isothiocyanate (FITC) using Annexin V-FITC apoptosis detection kit (BD Biosciences) according to the manufacturer's protocol. Cells were subjected to flow cytometry analysis within one hour of staining.

MG-63 cells [7] = test: Cell cycle analysis (PI, FACS), MG-63; assay type: cell-based, human; details: alone at ED50 (50 nM)
Procedure: as §3

human OS cells = details: LD-MTX alone; xenograft studies using murine models (refs 24, 37); cited from earlier work
Serum chemistry in mice = assay type: in vivo; details: LD-MTX 150 mg/kg; day 35
Procedure: as §4

**Q.** For `CN(Cc1cnc2nc(N)nc(N)c2n1)c1ccc(C(=O)N[C@@H](CCC(=O)O)C(=O)O)cc1` [MTX, methotrexate, reference compound], which “BFU-E, number of colonies” value [1] is on record?
**A.** 7.1 ± 0.8

**Q.** What about the “CFU-GEMM, number of colonies” value [1] of the same molecule?
**A.** 3.4 ± 0.5

**Q.** What about the “CFU-GM, number of colonies” value [1] of the same molecule?
**A.** 64.6 ± 3.6

**Q.** What about the EC50 (MG-63 cells [2]) of the same molecule?
**A.** 50 nM

**Q.** And the “mice with sluggish movements, occasional diarrhea, and a patchy skin rash” value [3]?
**A.** 60%

**Q.** And the body weight loss ([3]; some mice, 48 hours after MTX injection)?
**A.** 10%

**Q.** And the HE-stained tumors (MG-63 xenografts [4])?
**A.** less number of blood vessels

**Q.** What about the Kidney organ weight (Organ weight in mice) of the same molecule?
**A.** 345 ± 1 mg

**Q.** And the Liver organ weight (Organ weight in mice)?
**A.** 1120 ± 21 mg

**Q.** And the Spleen organ weight (Organ weight in mice)?
**A.** 135 ± 7 mg

**Q.** And the tumor volume (MG-63 xenografts [5])?
**A.** allowed the tumor volume to increase slightly from its original size

**Q.** What about the Basophils (Blood counts in mice) of the same molecule?
**A.** 0.00 ± 0.00 K/μl

**Q.** And the Eosinophils (Blood counts in mice)?
**A.** 0.00 ± 0.00 K/μl

**Q.** And the Lymphocytes (Blood counts in mice)?
**A.** 4.05 ± 0.58 K/μl

**Q.** What about the Monocytes (Blood counts in mice) of the same molecule?
**A.** 0.17 ± 0.04 K/μl

**Q.** And the Neutrophills (Blood counts in mice)?
**A.** 0.56 ± 0.42 K/μl

**Q.** What about the RBCs (Blood counts in mice) of the same molecule?
**A.** 7.69 ± 0.16 M/μl

**Q.** What about the WBCs (Blood counts in mice) of the same molecule?
**A.** 4.80 ± 0.99 K/μl

**Q.** And the apoptotic cells (MG-63 cells [6])?
**A.** 30%

**Q.** And the “earliest sign of S-phase arrest” value (MG-63 cells [7])?
**A.** 48 h

**Q.** And the “growth inhibition of human OS cells” value (human OS cells)?
**A.** < 20%

**Q.** What about the CK (Serum chemistry in mice) of the same molecule?
**A.** 183.0 ± 140 U/l

**Q.** What about the bilirubin (Serum chemistry in mice) of the same molecule?
**A.** 0.12 ± 0.00 mg/dL

**Q.** What about the cholesterol (Serum chemistry in mice) of the same molecule?
**A.** 148.5 ± 24.7 mg/dL

**Q.** What about the creatine (Serum chemistry in mice) of the same molecule?
**A.** 0.39 ± 0.21 mg/dL

**Q.** And the globulin (Serum chemistry in mice)?
**A.** 1.3 ± 0.4 g/dL

**Q.** And the total protein (Serum chemistry in mice)?
**A.** 4.6 ± 0.7 g/dL

**Q.** And the uric acid (Serum chemistry in mice)?
**A.** 4.7 ± 0.8 mg/dL
